This experiment addresses T1, AsPC-1 HiBiT-KRASG12D (Homo sapiens, UniProt P01116, G12D).
T1 construct: insert the HiBiT tag onto the N-terminus of one or more of the endogenous KRAS alleles; endogenous in cells; host or cells: AsPC-1 (ATCC CRL-1682), CRISPR-Cas9 knock-in clone, one tagged allele
The experiment is described as follows: HiBiT degradation assay (G12D), AsPC-1 HiBiT-KRASG12D cells. Format: cell-based. To be noted: 24 hours treatment; for Dmax: ASPC1, AsPC-1 HiBiT-KRASG12D cells, maximum degradation observed; for DC50: AsPC-1 HiBiT-KRASG12D cells, HiBiT luminescence. The gist of the method:
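HiBiT-KRAS abundance was read as Nano-Glo HiBiT lytic luminescence (45 min, room temperature) after a PBS wash. Before that, a 4 h alamar blue fluorescence read, normalized to DMSO, monitored viability. Treatment lasted 24 hours at 37 °C, in triplicate, using AsPC-1 cells with endogenous N-terminally HiBiT-tagged KRAS G12D.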

For orientation: Dmax means the greatest extent of degradation seen. Usually DC50 stands for the concentration giving 50% degradation. A low value points to a more potent degrader.

T1 sequence (P01116 1-188 isoform P01116-2 G12D): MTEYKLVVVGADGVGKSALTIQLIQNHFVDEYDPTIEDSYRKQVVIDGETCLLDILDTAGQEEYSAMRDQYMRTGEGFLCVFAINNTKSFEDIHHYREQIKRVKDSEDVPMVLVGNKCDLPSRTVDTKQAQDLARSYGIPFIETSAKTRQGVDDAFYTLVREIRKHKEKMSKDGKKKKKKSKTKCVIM

With `CCc1cccc2cc(O)cc(-c3ncc4c(N5CC6CCC(C5)N6)nc(OC[C@@H]5CC[C@@H](COC(=O)N6CCN(c7cc([C@@H](C(=O)N8C[C@H](O)C[C@H]8C(=O)N[C@@H](C)c8ccc(-c9scnc9C)cc8)C(C)C)on7)CC6)N5C)nc4c3F)c12` [Compound 289, [(2S,5S)-5-[[4-(3,8-diazabicyclo[3.2.1]octan-3-yl)-7-(8-ethyl-3-hydroxy-1-naphthyl)-8-fluoro-pyrido[4,3-d]pyrimidin-2-yl]oxymethyl]-1-methyl-pyrrolidin-2-yl]methyl 4-[5-[(1S)-1-[(2S,4R)-4-hydroxy-2-[[(1S)-1-[4-(4-methylthiazol-5-yl)phenyl]ethyl]carbamoyl]pyrrolidine-1-carbonyl]-2-methyl-propyl]isoxazol-3-yl]piperazine-1-carboxylate], the maximal degradation (Dmax) lay within 20 to 60% and the DC50 fell in the range of 1 to 3 µM.

Molecule `CCc1cccc2cc(O)cc(-c3ncc4c(N5CC6CCC(C5)N6C=O)nc(OCCN5CCC6(CC5)CN(c5cc([C@H](C(=O)N7C[C@H](O)C[C@H]7C(=O)N[C@@H](C)c7ccc(-c8scnc8C)cc7)C(C)C)on5)C6)nc4c3F)c12` [Compound 290, (2S,4R)-1-[(2R)-2-[3-[7-[2-[7-(8-ethyl-3-hydroxy-1-naphthyl)-8-fluoro-4-(8-formyl-3,8-diazabicyclo[3.2.1]octan-3-yl)pyrido[4,3-d]pyrimidin-2-yl]oxyethyl]-2,7-diazaspiro[3.5]nonan-2-yl]isoxazol-5-yl]-3-methyl-butanoyl]-4-hydroxy-N-[(1S)-1-[4-(4-methylthiazol-5-yl)phenyl]ethyl]pyrrolidine-2-carboxamide] registered a DC50 greater than 3 µM.

`CCc1cccc2cc(O)cc(-c3ncc4c(N5CC6CCC(C5)N6)nc(OC[C@@H]5CC[C@@H](COC(=O)N6CC(Oc7cc([C@@H](C(=O)N8C[C@H](O)C[C@H]8C(=O)N[C@@H](C)c8ccc(-c9scnc9C)cc8)C(C)C)on7)C6)N5C)nc4c3F)c12` [Compound 291] had a Dmax of less than 20% and a DC50 of less than 0.6 µM.

For the molecule `C#Cc1c(F)ccc2cc(O)cc(-c3ncc4c(N5CC6CCC(C5)N6)nc(OC[C@]56CCCN5[C@H](COC(=O)N5CC(Oc7cc([C@H](C(=O)N8C[C@H](O)C[C@H]8C(=O)N[C@@H](C)c8ccc(-c9scnc9C)cc8)C(C)C)on7)C5)CC6)nc4c3F)c12` [Compound 292], the maximal degradation (Dmax) is 80 to 100% and the DC50 is less than 0.6 µM.

`CCc1cccc2cc(O)cc(-c3ncc4c(N5CC6CCC(C5)N6)nc(OCCN5CCC(CN6CCN(c7cnc(C(=O)N[C@H](C(=O)N8C[C@H](O)C[C@H]8C(=O)N[C@@H](C)c8ccc(-c9scnc9C)cc8)C(C)(C)C)cn7)CC6)CC5)nc4c3F)c12` [Compound 293] returned a Dmax of 60 to 80% and a DC50 of less than 0.6 µM.

With `CCc1cccc2cc(O)cc(-c3ncc4c(N5CC6CCC(C5)N6)nc(OC[C@@H]5CC[C@@H](COC(=O)N6CC(Oc7cc([C@H](C(=O)N8C[C@H](O)C[C@H]8C(=O)N[C@@H](C)c8ccc(-c9scnc9C)cc8)C(C)C)on7)C6)N5C)nc4c3F)c12` [Compound 294], the Dmax fell in the range of 80 to 100% and the half-maximal degradation concentration (DC50) was less than 0.6 µM.

As for `CCc1cccc2cc(O)cc(-c3ncc4c(N5CC6CCC(C5)N6)nc(OC[C@]56CCCN5[C@H](COC(=O)N5C[C@H](C)N(c7cc([C@H](C(=O)N8C[C@H](O)C[C@H]8C(=O)N[C@@H](C)c8ccc(-c9scnc9C)cc8)C(C)C)on7)C[C@H]5C)CC6)nc4c3F)c12` [Compound 296, [(3S,8R)-8-[[4-(3,8-diazabicyclo[3.2.1]octan-3-yl)-7-(8-ethyl-3-hydroxy-1-naphthyl)-8-fluoro-pyrido[4,3-d]pyrimidin-2-yl]oxymethyl]-1,2,3,5,6,7-hexahydropyrrolizin-3-yl]methyl (2R,5S)-4-[5-[(1R)-1-[(2S,4R)-4-hydroxy-2-[[(1S)-1-[4-(4-methylthiazol-5-yl)phenyl]ethyl]carbamoyl]pyrrolidine-1-carbonyl]-2-methyl-propyl]isoxazol-3-yl]-2,5-dimethyl-piperazine-1-carboxylate], the Dmax was 80 to 100% and the half-maximal degradation concentration (DC50) is less than 0.6 µM.

The molecule `CCc1cccc2cc(O)cc(-c3ncc4c(N5CC6CCC(C5)N6)nc(OC[C@]56CCCN5[C@H](COC(=O)N5C[C@@H](C)N(c7cc([C@@H](C(=O)N8C[C@H](O)C[C@H]8C(=O)N[C@@H](C)c8ccc(-c9scnc9C)cc8)C(C)C)on7)C[C@@H]5C)CC6)nc4c3F)c12` [Compound 297, [(3S,8R)-8-[[4-(3,8-diazabicyclo[3.2.1]octan-3-yl)-7-(8-ethyl-3-hydroxy-1-naphthyl)-8-fluoro-pyrido[4,3-d]pyrimidin-2-yl]oxymethyl]-1,2,3,5,6,7-hexahydropyrrolizin-3-yl]methyl (2S,5R)-4-[5-[(1S)-1-[(2S,4R)-4-hydroxy-2-[[(1S)-1-[4-(4-methylthiazol-5-yl)phenyl]ethyl]carbamoyl]pyrrolidine-1-carbonyl]-2-methyl-propyl]isoxazol-3-yl]-2,5-dimethyl-piperazine-1-carboxylate] showed a Dmax of less than 20% and a half-maximal degradation concentration (DC50) of less than 0.6 µM.

In turn, `CCc1cccc2cc(O)cc(-c3ncc4c(N5CC6CCC(C5)N6)nc(OC[C@@H]5CC[C@@H](COC(=O)N6CCN(c7cc([C@@H](C(=O)N8C[C@H](O)C[C@H]8C(=O)N[C@@H](C)c8ccc(-c9scnc9C)cc8)C(C)C)on7)[C@H](C)C6)N5C)nc4c3F)c12` [Compound 298, [(2S,5S)-5-[[4-(3,8-diazabicyclo[3.2.1]octan-3-yl)-7-(8-ethyl-3-hydroxy-1-naphthyl)-8-fluoro-pyrido[4,3-d]pyrimidin-2-yl]oxymethyl]-1-methyl-pyrrolidin-2-yl]methyl (3R)-4-[5-[(1S)-1-[(2S,4R)-4-hydroxy-2-[[(1S)-1-[4-(4-methylthiazol-5-yl)phenyl]ethyl]carbamoyl]pyrrolidine-1-carbonyl]-2-methyl-propyl]isoxazol-3-yl]-3-methyl-piperazine-1-carboxylate] came in with a DC50 greater than 3 µM.

`CCc1cccc2cc(O)cc(-c3ncc4c(N5CCCCCC5)nc(OC[C@]56CCCN5[C@H](COC(=O)N5CC(Oc7cc([C@H](C(=O)N8C[C@H](O)C[C@H]8C(=O)N[C@@H](C)c8ccc(-c9scnc9C)cc8)C(C)C)on7)C5)CC6)nc4c3F)c12` [Compound 300] displayed a Dmax of 80 to 100% and a DC50 of less than 0.6 µM.

Regarding `CCc1cccc2cc(O)cc(-c3ncc4c(N5CC6CCC(C5)N6)nc(OC[C@@H]5CC[C@@H](COC(=O)N6CCN(c7cc([C@H](C(=O)N8C[C@H](O)C[C@H]8C(=O)N[C@@H](C)c8ccc(-c9scnc9C)cc8)C(C)C)on7)[C@H](C)C6)N5C)nc4c3F)c12` [Compound 301, [(2S,5S)-5-[[4-(3,8-diazabicyclo[3.2.1]octan-3-yl)-7-(8-ethyl-3-hydroxy-1-naphthyl)-8-fluoro-pyrido[4,3-d]pyrimidin-2-yl]oxymethyl]-1-methyl-pyrrolidin-2-yl]methyl (3R)-4-[5-[(1R)-1-[(2S,4R)-4-hydroxy-2-[[(1S)-1-[4-(4-methylthiazol-5-yl)phenyl]ethyl]carbamoyl]pyrrolidine-1-carbonyl]-2-methyl-propyl]isoxazol-3-yl]-3-methyl-piperazine-1-carboxylate], the greatest degradation seen (Dmax) was 80 to 100% and the DC50 was less than 0.6 µM.

The values are drawn from US20250206732A1, “COMPOUNDS AND METHODS FOR THE TARGETED DEGRADATION OF KRAS” (Arvinas Operations, Inc., priority 2022, published 2025).
